test system: BaF3-FL KIT D816V or BaF3-FL KIT V560G/D816V cell line; experiment: Cell-based assays of c-Kit mutant kinase activity (cell growth, ATPlite); details: at least one of the c-kit cell assays of Example 26
Description: The c-Kit mutant D816V inhibitors were assessed using an engineered BaF3-FL KIT D816V or BaF3-FL KIT V560G/D816V cell line. The BaF3-FL KIT D816V cell lines were created by introduction of KIT mutant (D816V) full length constructs that render the cells dependent on the introduced kinase for growth. Inhibitors of c-Kit mutant D816V kinase reduce or eliminate the mediated c-kit mutant D816V kinase activation, resulting in reduced cell proliferation of the BaF3-FL Kit mutant D816V cells. This inhibition is measured by the effect of compound concentration on cell growth to assess IC50 values. BaF3-FL KIT D816V cells were seeded at 1×10^4 cells per well of a 96 well cell culture plate in 50 μl of cell culture medium of RPMI Medium 1X (Invitrogen #11875-093) supplemented with 10% FBS (Invitrogen #10438), 1% Non Essential Amino Acids(Invitrogen #11140), 1% Penicillin Streptomycin (Invitrogen #15140), 1% L-Glutamine (Invitrogen #25030-081). Compounds were dissolved in DMSO at a concentration of 5 mM and were serially diluted 1:3 for a total of eight points and added to the cells to a final maximum concentration of 10 μM in 100 μl cell culture medium (final concentration 0.2% DMSO). Cells were also treated with Dasatinib as a positive control. The cells were incubated at 37° C., 5% CO2 for three days. ATPlite Buffer (Perkin Elmer #6016739) and substrate were equilibrated to room temperature, and enzyme/substrate Recombinant Firefly Luciferase/D-Luciferin was reconstituted. The cell plates were equilibrated to room temperature for 30 minutes, then lysed by addition of 25 uL per well of the ATPlite Reagent. The plate was mixed for 5 minutes on a plate shaker to lyse the cells. The plates were read on a Tecan Safire using Luminescence protocol modified to read 0.1 s per well. The luminescence reading assesses the ATP content, which correlates directly with cell number such that the reading as a function of compound concentration is used to determine the IC50 value.
Plasmids P75635 and P75565 were engineered for mammalian cell expression. In both plasmids, full-length human v-kit Hardy-Zuckerman 4 feline sarcoma viral oncogene homolog gene (NCBI accession NM_000222, KIT, residues M1-V976) was subcloned into the pCI-Neo vector (Promega E1841). Plasmid P75635 contains the mutation of residue Aspartic acid 816 to Valine. Plasmid P75565 contains the double mutation of residues Valine 560 to Glycine and Aspartic acid 816 to Valine. The pCI-neo Mammalian Expression Vector carries the human cytomegalovirus (CMV) immediate-early enhancer/promoter region to promote constitutive expression of KIT and contains the neomycin phosphotransferase gene, a selectable marker.
It is understood that the results of these assays may vary as assay conditions are varied. Inhibition levels determined under the conditions described herein represent a relative activity for the compounds tested under the specific conditions employed. The cell based assays are likely to show variability due to the complexity of the system and the sensitivity thereof to any changes in the assay conditions. […] In some instances, the compounds were not tested in all of the assays, or assay results were not valid.

SMILES | IC50 [µM]
COCCCOc1ccc(-c2cc3cc(NC(=O)c4[nH]nc(C)c4C)cnc3[nH]2)cc1 [P-2102, N-[2-[4-(3-methoxypropoxy)phenyl]-1H-pyrrolo[2,3-b]pyridin-5-yl]-3,4-dimethyl-1H-pyrazole-5-carboxamide] | < 10
Cc1n[nH]c(C(=O)Nc2cnc3[nH]c(-c4ccc(N5CCN(C)CC5)cc4)cc3c2)c1C [P-2104, 3,4-dimethyl-N-[2-[4-(4-methylpiperazin-1-yl)phenyl]-1H-pyrrolo[2,3-b]pyridin-5-yl]-1H-pyrazole-5-carboxamide] | < 10
Cc1n[nH]c(C(=O)Nc2cnc3[nH]c(-c4ccc(C(=O)N5CCSCC5)cc4)cc3c2)c1C [P-2105, 3,4-dimethyl-N-[2-[4-(thiomorpholine-4-carbonyl)phenyl]-1H-pyrrolo[2,3-b]pyridin-5-yl]-1H-pyrazole-5-carboxamide] | < 10
Cc1n[nH]c(C(=O)Nc2cnc3[nH]c(-c4cccc(C(=O)N5CCOCC5)c4)cc3c2)c1C [P-2106, 3,4-dimethyl-N-[2-[3-(morpholine-4-carbonyl)phenyl]-1H-pyrrolo[2,3-b]pyridin-5-yl]-1H-pyrazole-5-carboxamide] | < 10
Cc1n[nH]c(C(=O)Nc2cnc3[nH]c(-c4cccc(C(=O)N5CCCC5)c4)cc3c2)c1C [P-2107, 3,4-dimethyl-N-[2-[3-(pyrrolidine-1-carbonyl)phenyl]-1H-pyrrolo[2,3-b]pyridin-5-yl]-1H-pyrazole-5-carboxamide] | < 10
Cc1n[nH]c(C(=O)Nc2cnc3[nH]c(-c4ccnc(C5CC5)c4)cc3c2)c1C [P-2108, N-[2-(2-cyclopropyl-4-pyridyl)-1H-pyrrolo[2,3-b]pyridin-5-yl]-3,4-dimethyl-1H-pyrazole-5-carboxamide] | < 10
COc1cc(-c2cc3cc(NC(=O)c4[nH]nc(C)c4C)cnc3[nH]2)ccn1 [P-2109, N-[2-(2-methoxy-4-pyridyl)-1H-pyrrolo[2,3-b]pyridin-5-yl]-3,4-dimethyl-1H-pyrazole-5-carboxamide] | < 10
Cc1n[nH]c(C(=O)Nc2cnc3[nH]c(-c4ccnc(N5CCOCC5)c4)cc3c2)c1C [P-2110, 3,4-dimethyl-N-[2-(2-morpholino-4-pyridyl)-1H-pyrrolo[2,3-b]pyridin-5-yl]-1H-pyrazole-5-carboxamide] | < 10
Cc1n[nH]c(C(=O)Nc2cnc3[nH]c(-c4ccc(NS(C)(=O)=O)cc4)cc3c2)c1C [P-2111, N-[2-[4-(methanesulfonamido)phenyl]-1H-pyrrolo[2,3-b]pyridin-5-yl]-3,4-dimethyl-1H-pyrazole-5-carboxamide] | < 10
Cc1cc(C(=O)Nc2cnc3[nH]c(-c4ccc(F)cc4)cc3c2)nn1C [P-2119, N-[2-(4-fluorophenyl)-1H-pyrrolo[2,3-b]pyridin-5-yl]-1,5-dimethyl-pyrazole-3-carboxamide] | < 10
Cc1n[nH]c(C(=O)Nc2cnc3[nH]c(-c4ccncc4)cc3c2)c1C [P-2124, 3,4-dimethyl-N-[2-(4-pyridyl)-1H-pyrrolo[2,3-b]pyridin-5-yl]-1H-pyrazole-5-carboxamide] | < 10
Cc1n[nH]c(C(=O)Nc2cnc3[nH]c(-c4ccc(N5CCCC5)cc4)cc3c2)c1C [P-2125, 3,4-dimethyl-N-[2-(4-pyrrolidin-1-ylphenyl)-1H-pyrrolo[2,3-b]pyridin-5-yl]-1H-pyrazole-5-carboxamide] | < 10
CCCS(=O)(=O)Nc1cccc(-c2cc3cc(NC(=O)c4[nH]nc(C)c4C)cnc3[nH]2)c1 [P-2126, 3,4-dimethyl-N-[2-[3-(propylsulfonylamino)phenyl]-1H-pyrrolo[2,3-b]pyridin-5-yl]-1H-pyrazole-5-carboxamide] | < 10
Cc1n[nH]c(C(=O)Nc2cnc3[nH]c(-c4ccc(P(C)(C)=O)cc4)cc3c2)c1C [P-2127, N-[2-(4-dimethylphosphorylphenyl)-1H-pyrrolo[2,3-b]pyridin-5-yl]-3,4-dimethyl-1H-pyrazole-5-carboxamide] | < 10
Cc1n[nH]c(C(=O)Nc2cnc3[nH]c(-c4cccc(C#N)c4)cc3c2)c1C [P-2128, N-[2-(3-cyanophenyl)-1H-pyrrolo[2,3-b]pyridin-5-yl]-3,4-dimethyl-1H-pyrazole-5-carboxamide] | < 10
COc1cccc(-c2cc3cc(NC(=O)c4[nH]nc(C)c4C)cnc3[nH]2)c1F [P-2129, N-[2-(2-fluoro-3-methoxy-phenyl)-1H-pyrrolo[2,3-b]pyridin-5-yl]-3,4-dimethyl-1H-pyrazole-5-carboxamide] | < 10
Cc1cccc(-c2cc3cc(NC(=O)c4[nH]nc(C)c4C)cnc3[nH]2)c1 [P-2130, 3,4-dimethyl-N-[2-(m-tolyl)-1H-pyrrolo[2,3-b]pyridin-5-yl]-1H-pyrazole-5-carboxamide] | < 10
Cc1n[nH]c(C(=O)Nc2cnc3[nH]c(-c4ccc(F)cc4)cc3c2)n1 [P-2131, N-[2-(4-fluorophenyl)-1H-pyrrolo[2,3-b]pyridin-5-yl]-3-methyl-1H-1,2,4-triazole-5-carboxamide] | < 10
CCCc1cc(C(=O)Nc2cnc3[nH]c(-c4ccc(F)cc4)cc3c2)[nH]n1 [P-2132, N-[2-(4-fluorophenyl)-1H-pyrrolo[2,3-b]pyridin-5-yl]-3-propyl-1H-pyrazole-5-carboxamide] | < 10
CC(=O)Nc1ccc(-c2cc3cc(NC(=O)c4[nH]nc(C)c4C)cnc3[nH]2)cn1 [P-2133, N-[2-(6-acetamido-3-pyridyl)-1H-pyrrolo[2,3-b]pyridin-5-yl]-3,4-dimethyl-1H-pyrazole-5-carboxamide] | < 10
CCCCNC(=O)Nc1cccc(-c2cc3cc(NC(=O)c4[nH]nc(C)c4C)cnc3[nH]2)c1 [P-2134, N-[2-[3-(butylcarbamoylamino)phenyl]-1H-pyrrolo[2,3-b]pyridin-5-yl]-3,4-dimethyl-H-pyrazole-5-carboxamide] | < 10
COc1ccccc1-c1cc2cc(NC(=O)c3[nH]nc(C)c3C)cnc2[nH]1 [P-2135, N-[2-(2-methoxyphenyl)-1H-pyrrolo[2,3-b]pyridin-5-yl]-3,4-dimethyl-1H-pyrazole-5-carboxamide] | < 10
Cc1ncccc1-c1cc2cc(NC(=O)c3[nH]nc(C)c3C)cnc2[nH]1 [P-2136, 3,4-dimethyl-N-[2-(2-methyl-3-pyridyl)-1H-pyrrolo[2,3-b]pyridin-5-yl]-1H-pyrazole-5-carboxamide] | < 10
CC(=O)Nc1ccc(-c2cc3cc(NC(=O)c4[nH]nc(C)c4C)cnc3[nH]2)cc1 [P-2137, N-[2-(4-acetamidophenyl)-1H-pyrrolo[2,3-b]pyridin-5-yl]-3,4-dimethyl-1H-pyrazole-5-carboxamide] | < 10
Cc1n[nH]c(C(=O)Nc2cnc3[nH]c(-c4ccc(C(=O)N5CCOCC5)cc4)cc3c2)c1C [P-2138, 3,4-dimethyl-N-[2-[4-(morpholine-4-carbonyl)phenyl]-1H-pyrrolo[2,3-b]pyridin-5-yl]-1H-pyrazole-5-carboxamide] | < 10
Cc1nc(C)c(-c2cc3cc(NC(=O)c4[nH]nc(C)c4C)cnc3[nH]2)s1 [P-2139, N-[2-(2,4-dimethylthiazol-5-yl)-1H-pyrrolo[2,3-b]pyridin-5-yl]-3,4-dimethyl-1H-pyrazole-5-carboxamide] | < 10
Cc1n[nH]c(C(=O)Nc2cnc3[nH]c(-c4cnn(C(F)F)c4)cc3c2)c1C [P-2140, N-[2-[1-(difluoromethyl)pyrazol-4-yl]-1H-pyrrolo[2,3-b]pyridin-5-yl]-3,4-dimethyl-1H-pyrazole-5-carboxamide] | < 10
Cc1n[nH]c(CNc2cnc3[nH]c(-c4ccc(F)cc4)cc3c2)c1Cl [P-2141, N-[(4-chloro-5-methyl-1H-pyrazol-3-yl)methyl]-2-(4-fluorophenyl)-1H-pyrrolo[2,3-b]pyridin-5-amine] | < 10
Cc1cc(CNc2cnc3[nH]c(-c4ccc(F)cc4)cc3c2)[nH]n1 [P-2142, 2-(4-fluorophenyl)-N-[(5-methyl-1H-pyrazol-3-yl)methyl]-1H-pyrrolo[2,3-b]pyridin-5-amine] | < 10
Cc1n[nH]c(C(=O)Nc2cnc3[nH]c(-c4cccc(Cl)c4C)cc3c2)c1C [P-2147, N-[2-(3-chloro-2-methyl-phenyl)-1H-pyrrolo[2,3-b]pyridin-5-yl]-3,4-dimethyl-1H-pyrazole-5-carboxamide] | < 10
